Test results from US11613538B2, “Method of inhibiting or reducing a viral infection” (PTC Therapeutics, Inc., priority 2009, dated 2023).

Tested on: hypoxia-induced VEGF production in HeLa cells
Assay: cells
Assay type: cell-based, human
Conditions: Homo sapiens, HeLa

For O=C(OC1CCCC1)N1CCc2c([nH]c3ccc(Cl)cc23)[C@@H]1c1ccc(OC2CCOCC2)cc1 [Compound 1253], the EC50 was < 8 nM.
O[C@@H](COc1ccc([C@H]2c3[nH]c4ccc(Cl)cc4c3CCN2c2ncccn2)cc1)CN1CCOCC1 [Compound 1254] was tested, and the EC50 was < 8 nM.
Work on O=C(Oc1ccc(Cl)cc1)N1CCc2c([nH]c3ccc(Cl)cc23)[C@@H]1c1ccc(OCCCNC(CO)(CO)CO)cc1 [Compound 1255] yielded an EC50 of 40 to 200 nM.
OCCCOc1ccc([C@H]2c3[nH]c4ccc(Cl)cc4c3CCN2c2ncccn2)cc1 [Compound 1256] was tested, and the EC50 was < 8 nM.
Work on O=C(Oc1ccc(Cl)cc1)N1CCc2c([nH]c3ccc(Cl)cc23)[C@@H]1c1ccc(OCCCNCCO)cc1 [Compound 1257] yielded an EC50 of 8 to 40 nM.
With O=C(Oc1ccc(Cl)cc1)N1CCc2c([nH]c3ccc(Cl)cc23)[C@@H]1c1ccc(OCCCN(CCO)CCO)cc1 [Compound 1258] the EC50 was < 8 nM.
With CC1(C)OC[C@@H](COc2ccc([C@H]3c4[nH]c5ccc(Cl)cc5c4CCN3C(=O)Oc3ccc(Cl)cc3)cc2)O1 [Compound 1260] the EC50 was < 8 nM.
For CCOC(=O)N1CCc2c([nH]c3ccc(Cl)cc23)[C@@H]1c1ccc(OC[C@@H]2COC(C)(C)O2)cc1 [Compound 1261], the EC50 was < 8 nM.
For C=CCOc1ccc([C@H]2c3[nH]c4ccc(Cl)cc4c3CCN2C(=O)OC2CCCC2)cc1 [Compound 1262], the EC50 was < 8 nM.
CCOC(=O)N1CCc2c([nH]c3ccc(Cl)cc23)[C@@H]1c1ccc(OCCCNC2CC2)cc1 [Compound 1264] was tested, and the EC50 was 8 to 40 nM.
With CCOC(=O)N1CCc2c([nH]c3ccc(Cl)cc23)C1c1ccc(OC)cc1F (stereo not shown) [Compound 1268] the EC50 was < 8 nM.
CCOC(=O)N1CCc2c([nH]c3ccc(Cl)cc23)[C@@H]1c1ccc(OCCC(O)CNC(C)=O)cc1 (stereo partly shown) [Compound 1270] was tested, and the EC50 was 8 to 40 nM.
CCOC(=O)N1CCc2c([nH]c3ccc(Cl)cc23)[C@@H]1c1ccc(OCCC(O)CNC(=O)COC)cc1 (stereo partly shown) [Compound 1271] showed an EC50 of 8 to 40 nM.
For CCOC(=O)N1CCc2c([nH]c3ccc(Cl)cc23)[C@@H]1c1ccc(OCCC(O)CN2CCOCC2)cc1 (stereo partly shown) [Compound 1272], the EC50 was < 8 nM.
CCOC(=O)N1CCc2c([nH]c3ccc(Cl)cc23)[C@@H]1c1ccc(OCCC(O)CN(CCO)CCO)cc1 (stereo partly shown) [Compound 1273] gave an EC50 of 8 to 40 nM.
For CCOC(=O)N1CCc2c([nH]c3ccc(Cl)cc23)[C@@H]1c1ccc(OCCC(O)Cn2ccnn2)cc1 (stereo partly shown) [Compound 1274], the EC50 was < 8 nM.
For CCOC(=O)N1CCc2c([nH]c3ccc(Cl)cc23)[C@@H]1c1ccc(OCCC(O)Cn2nccn2)cc1 (stereo partly shown) [Compound 1275], the EC50 was < 8 nM.
O=C(Oc1ccc(Cl)cc1)N1CCc2c([nH]c3ccc(Cl)cc23)[C@@H]1c1ccc(OCCC(O)CN2CCOCC2)cc1 (stereo partly shown) [Compound 1279] was tested, and the EC50 was < 8 nM.
Molecule O=C(Oc1ccc(Cl)cc1)N1CCc2c([nH]c3ccc(Cl)cc23)[C@@H]1c1ccc(OCCC(O)CN(CCO)CCO)cc1 (stereo partly shown) [Compound 1280] has an EC50 of 8 to 40 nM.
For CCOC(=O)N1CCc2c([nH]c3ccc(Cl)cc23)[C@@H]1c1ccc(OCC(C)(CO)CO)cc1 [Compound 1283], the EC50 was < 8 nM.
CCOC(=O)N1CCc2c([nH]c3ccc(Cl)cc23)[C@@H]1c1ccc(OCC2(C)COC(C)(C)OC2)cc1 [Compound 1284] was tested, and the EC50 was < 8 nM.
For O=C(OC1CCCC1)N1CCc2c([nH]c3ccc(Cl)cc23)[C@@H]1c1ccc(OCCCO)cc1 [Compound 1285], the EC50 was < 8 nM.
With O=C(OC1CCCC1)N1CCc2c([nH]c3ccc(Cl)cc23)[C@@H]1c1ccc(O)cc1 [Compound 1286] the EC50 was 40 to 200 nM.
In the case of CCOC(=O)N1CCc2c([nH]c3ccc(Cl)cc23)[C@@H]1c1ccc(OCCC(O)Cn2cncn2)cc1 (stereo partly shown) [Compound 1287], the EC50 is reported as 8 to 40 nM.
With Cc1ccc(OC(=O)N2CCc3c([nH]c4ccc(Cl)cc34)[C@@H]2c2ccc(OCCC(O)CN(CCO)CCO)cc2)cc1 (stereo partly shown) [Compound 1288] the EC50 was 8 to 40 nM.
In the case of CC#CCOC(=O)N1CCc2c([nH]c3ccc(Cl)cc23)[C@@H]1c1ccc(OCCCCl)cc1 [Compound 1294], the EC50 is reported as < 8 nM.
CC(C)OC(=O)N1CCc2c([nH]c3ccc(Cl)cc23)[C@@H]1c1ccc(OCC[C@H](O)CO)cc1 [Compound 1295] was tested, and the EC50 was < 8 nM.
CC(C)OC(=O)N1CCc2c([nH]c3ccc(Cl)cc23)[C@@H]1c1ccc(OCC(C)(CO)CO)cc1 [Compound 1296] was tested, and the EC50 was 8 to 40 nM.
For COc1ccc([C@H]2C3Nc4ccc(Cl)cc4C3CCN2C(=O)OC2CCCC2)cc1 (stereo partly shown) [Compound 1298], the EC50 was < 8 nM.
Cc1ccc(OC(=O)N2CCC3c4cc(Cl)ccc4NC3[C@@H]2c2ccc(OCCC(O)CN3CCOCC3)cc2)cc1 (stereo partly shown) [Compound 1302] was tested, and the EC50 was 40 to 200 nM.
O[C@@H](CCOc1ccc([C@H]2c3[nH]c4ccc(Cl)cc4c3CCN2c2ncccn2)cc1)CN1CCOCC1 [Compound 1303] was tested, and the EC50 was < 8 nM.
For O[C@@H](CCOc1ccc([C@H]2c3[nH]c4ccc(Cl)cc4c3CCN2c2ncccn2)cc1)CN1CCCCC1 [Compound 1304], the EC50 was < 8 nM.
In the case of CCN(CC)C[C@@H](O)CCOc1ccc([C@H]2c3[nH]c4ccc(Cl)cc4c3CCN2c2ncccn2)cc1 [Compound 1305], the EC50 is reported as 8 to 40 nM.
CN1CCN(C[C@@H](O)CCOc2ccc([C@H]3c4[nH]c5ccc(Cl)cc5c4CCN3c3ncccn3)cc2)CC1 [Compound 1306] gave an EC50 of 8 to 40 nM.
In the case of CN1CCN(C[C@H](O)COc2ccc([C@H]3c4[nH]c5ccc(Cl)cc5c4CCN3c3ncccn3)cc2)CC1 [Compound 1308], the EC50 is reported as < 8 nM.
CCN(CC)C[C@H](O)COc1ccc([C@H]2c3[nH]c4ccc(Cl)cc4c3CCN2c2ncccn2)cc1 [Compound 1309] was tested, and the EC50 was 8 to 40 nM.
For O[C@H](COc1ccc([C@H]2c3[nH]c4ccc(Cl)cc4c3CCN2c2ncccn2)cc1)CN1CCCCC1 [Compound 1310], the EC50 was 8 to 40 nM.
Work on CCN(CC)C[C@@H](O)COc1ccc([C@H]2c3[nH]c4ccc(Cl)cc4c3CCN2c2ncccn2)cc1 [Compound 1311] yielded an EC50 of 40 to 200 nM.
For CN1CCN(C[C@@H](O)COc2ccc([C@H]3c4[nH]c5ccc(Cl)cc5c4CCN3c3ncccn3)cc2)CC1 [Compound 1312], the EC50 was 8 to 40 nM.
In the case of O[C@@H](COc1ccc([C@H]2c3[nH]c4ccc(Cl)cc4c3CCN2c2ncccn2)cc1)CN1CCCCC1 [Compound 1313], the EC50 is reported as 8 to 40 nM.
In the case of CC1(C)OC[C@H](CCOc2ccc([C@H]3c4[nH]c5ccc(Cl)cc5c4CCN3C(=O)OCC3CC3)cc2)O1 [Compound 1314], the EC50 is reported as < 8 nM.
For CC1(C)OC[C@H](CCOc2ccc([C@H]3c4[nH]c5ccc(Cl)cc5c4CCN3C(=O)OCC3CCC3)cc2)O1 [Compound 1315], the EC50 was < 8 nM.
For CC1(C)OC[C@H](CCOc2ccc([C@H]3c4[nH]c5ccc(Cl)cc5c4CCN3C(=O)OC3CCCC3)cc2)O1 [Compound 1316], the EC50 was < 8 nM.
CC1(COc2ccc([C@H]3c4[nH]c5ccc(Cl)cc5c4CCN3C(=O)OCC3CC3)cc2)COC(C)(C)OC1 [Compound 1317] was tested, and the EC50 was < 8 nM.
CC1(COc2ccc([C@H]3c4[nH]c5ccc(Cl)cc5c4CCN3C(=O)OCC3CCC3)cc2)COC(C)(C)OC1 [Compound 1318] was tested, and the EC50 was < 8 nM.
CC1(COc2ccc([C@H]3c4[nH]c5ccc(Cl)cc5c4CCN3C(=O)OC3CCCC3)cc2)COC(C)(C)OC1 [Compound 1319] was tested, and the EC50 was < 8 nM.
In the case of O=C(OC1CCCC1)N1CCc2c([nH]c3ccc(Cl)cc23)[C@@H]1c1ccc(OCC[C@H](O)CO)cc1 [Compound 1320], the EC50 is reported as < 8 nM.
In the case of CC(CO)(CO)COc1ccc([C@H]2c3[nH]c4ccc(Cl)cc4c3CCN2C(=O)OC2CCCC2)cc1 [Compound 1321], the EC50 is reported as < 8 nM.
In the case of O=C(OC1CCCC1)N1CCc2c([nH]c3ccc(Cl)cc23)[C@@H]1c1ccc(OC[C@H](O)CO)cc1 [Compound 1322], the EC50 is reported as < 8 nM.
For O=C(OC1CCCC1)N1CCc2c([nH]c3ccc(Cl)cc23)[C@@H]1c1ccc(OC[C@@H](O)CO)cc1 [Compound 1323], the EC50 was < 8 nM.
With CCOC(=O)N1CCc2c([nH]c3ccc(Cl)cc23)[C@@H]1c1ccc(OCC(CC)(CO)CO)cc1 [Compound 1324] the EC50 was < 8 nM.
In the case of CCC(CO)(CO)COc1ccc([C@H]2c3[nH]c4ccc(Cl)cc4c3CCN2C(=O)OCC(C)C)cc1 [Compound 1326], the EC50 is reported as < 8 nM.
CCC(CO)(CO)COc1ccc([C@H]2c3[nH]c4ccc(Cl)cc4c3CCN2C(=O)OC2CCCC2)cc1 [Compound 1327] was tested, and the EC50 was < 8 nM.
With O=C(Oc1ccc(Cl)cc1)N1CCc2c([nH]c3ccc(Cl)cc23)[C@H]1c1ccc(O)cc1 [Compound 1332] the EC50 was > 1000 nM.
Work on CCOC(=O)C(=O)N1CCc2c([nH]c3ccc(Cl)cc23)C1c1ccc(OC)cc1 (stereo not shown) [Compound 1334] yielded an EC50 of 40 to 200 nM.
For COc1ccc(C2c3[nH]c4ccc(Cl)cc4c3CCN2C(=O)C(=O)OC(C)C)cc1 (stereo not shown) [Compound 1338], the EC50 was 8 to 40 nM.
CCCOC(=O)C(=O)N1CCc2c([nH]c3ccc(Cl)cc23)C1c1ccc(OC)cc1 (stereo not shown) [Compound 1339] was tested, and the EC50 was 8 to 40 nM.
For CCOC(=O)N1CCc2c([nH]c3ccc(Br)cc23)C1c1ccc(OCC(O)CO)cc1 (stereo not shown) [Compound 1340], the EC50 was 8 to 40 nM.
For CC(C)OC(=O)N1CCc2c([nH]c3ccc(Br)cc23)C1c1ccc(OCC(O)CO)cc1 (stereo not shown) [Compound 1341], the EC50 was 8 to 40 nM.
For CC(C)COC(=O)N1CCc2c([nH]c3ccc(Br)cc23)C1c1ccc(OCC(O)CO)cc1 (stereo not shown) [Compound 1342], the EC50 was < 8 nM.
For CCOC(=O)N1CCc2c([nH]c3ccc(Br)cc23)C1c1ccc(OCC[C@H](O)CO)cc1 (stereo partly shown) [Compound 1345], the EC50 was < 8 nM.
With CC(C)OC(=O)N1CCc2c([nH]c3ccc(Br)cc23)C1c1ccc(OCC[C@H](O)CO)cc1 (stereo partly shown) [Compound 1346] the EC50 was < 8 nM.
In the case of CC(C)COC(=O)N1CCc2c([nH]c3ccc(Br)cc23)C1c1ccc(OCC[C@H](O)CO)cc1 (stereo partly shown) [Compound 1347], the EC50 is reported as < 8 nM.
CC(C)OC(=O)N1CCc2c([nH]c3ccc(Br)cc23)C1c1ccc(OCC(C)(CO)CO)cc1 (stereo not shown) [Compound 1350] was tested, and the EC50 was < 8 nM.
For CC(C)COC(=O)N1CCc2c([nH]c3ccc(Br)cc23)C1c1ccc(OCC(C)(CO)CO)cc1 (stereo not shown) [Compound 1351], the EC50 was < 8 nM.
In the case of CCOC(=O)N1CCc2c([nH]c3ccc(Br)cc23)C1c1ccc(OCC(CC)(CO)CO)cc1 (stereo not shown) [Compound 1354], the EC50 is reported as < 8 nM.
In the case of CCC(CO)(CO)COc1ccc(C2c3[nH]c4ccc(Br)cc4c3CCN2C(=O)OC(C)C)cc1 (stereo not shown) [Compound 1355], the EC50 is reported as < 8 nM.
With CCC(CO)(CO)COc1ccc(C2c3[nH]c4ccc(Br)cc4c3CCN2C(=O)OCC(C)C)cc1 (stereo not shown) [Compound 1356] the EC50 was < 8 nM.
Work on CCOC(=O)N1CCc2c([nH]c3ccc(Cl)cc23)[C@@H]1c1ccc(OCC2(CO)COCOC2)cc1 [Compound 1359] yielded an EC50 of 8 to 40 nM.
With CC(C)OC(=O)N1CCc2c([nH]c3ccc(Cl)cc23)[C@@H]1c1ccc(OCC2(CO)COCOC2)cc1 [Compound 1360] the EC50 was 8 to 40 nM.
